Test results reported in the Kinase Knowledgebase extract (Sharma et al. 2016).

Target: MAPK14 (human) (UniProt Q16539)
Experiment: Inhibition of LPS Stimulated TNF Production by U937 Cells
Settings: for inhibition: concentration not given here

Chain of MAPK14 (human) (Q16539 whole entry, looked up): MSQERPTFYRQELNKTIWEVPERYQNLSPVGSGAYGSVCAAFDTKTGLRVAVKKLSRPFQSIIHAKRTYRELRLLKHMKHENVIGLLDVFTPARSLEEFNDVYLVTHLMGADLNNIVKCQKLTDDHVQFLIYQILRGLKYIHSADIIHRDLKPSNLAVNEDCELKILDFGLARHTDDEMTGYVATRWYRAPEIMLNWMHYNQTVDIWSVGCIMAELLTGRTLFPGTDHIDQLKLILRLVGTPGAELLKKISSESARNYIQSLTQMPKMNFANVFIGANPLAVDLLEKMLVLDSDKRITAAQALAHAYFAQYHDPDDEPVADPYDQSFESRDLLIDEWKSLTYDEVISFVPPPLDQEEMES

IC50	inhibition	Compound
> 1 µM		O=C(NCCCc1[nH]nc(-c2ccc(F)cc2)c1-c1ccncc1)NCCCN1CCCC1=O
	40%	COc1ccc(NC(=O)N[C@H](C)c2[nH]nc(-c3ccc(F)cc3)c2-c2ccncc2)c(OC)c1
	13%	CSCCC(=O)NCc1[nH]nc(-c2ccc(F)cc2)c1-c1ccncc1
	65%	O=C(NCc1[nH]nc(-c2ccc(F)cc2)c1-c1ccncc1)c1c(F)cccc1C(F)(F)F
	20%	COC(=O)CCCC(=O)NCc1[nH]nc(-c2ccc(F)cc2)c1-c1ccncc1
0.141 µM		Fc1ccc(-c2n[nH]cc2-c2ccnc(NCc3cccc(F)c3)c2)cc1
1.01 µM	26%	O=C(NCc1[nH]nc(-c2ccc(F)cc2)c1-c1ccncc1)c1ccc(F)c(F)c1
2.17 µM		O=S(=O)(NCc1[nH]nc(-c2ccc(F)cc2)c1-c1ccncc1)c1ccc(F)cc1F
	39%	C[C@H](NC(=O)c1cccc(Cl)c1)c1[nH]nc(-c2ccc(F)cc2)c1-c1ccncc1
3.95 µM		O=C(NCc1[nH]nc(-c2ccc(F)cc2)c1-c1ccncc1)c1ccccc1C(F)(F)F
0.347 µM		OCCn1cc(-c2ccnc(/C=C/c3ccc(F)cc3)c2)c(-c2ccc(F)cc2)n1
	87%	Cc1c(C)c(S(=O)(=O)N[C@@H](C)c2[nH]nc(-c3ccc(F)cc3)c2-c2ccncc2)c(C)c2c1OC(C)(C)CC2
	39%	Cc1ccc(S(=O)(=O)N[C@H](C)c2[nH]nc(-c3ccc(F)cc3)c2-c2ccncc2)cc1
4.85 µM		COC(=O)c1ccccc1S(=O)(=O)NCc1[nH]nc(-c2ccc(F)cc2)c1-c1ccncc1
	35%	C[C@@H](NC(=O)Nc1ccc(F)cc1)c1[nH]nc(-c2ccc(F)cc2)c1-c1ccncc1
	21%	O=C(CCc1ccccc1)NCc1[nH]nc(-c2ccc(F)cc2)c1-c1ccncc1
> 1 µM		O=C(NCc1[nH]nc(-c2ccc(F)cc2)c1-c1ccncc1)[C@H]1CCCN1
	33%	C[C@@H](NC(=O)Cc1cccs1)c1[nH]nc(-c2ccc(F)cc2)c1-c1ccncc1
	64%	CC(=O)Nc1ccc(S(=O)(=O)N[C@H](C)c2[nH]nc(-c3ccc(F)cc3)c2-c2ccncc2)cc1
10 µM		CC(C)NC(=O)NCc1[nH]nc(-c2ccc(F)cc2)c1-c1ccncc1
1.29 µM		Cc1ccc(S(=O)(=O)NCc2[nH]nc(-c3ccc(F)cc3)c2-c2ccncc2)cc1
	92%	CCc1ccc(S(=O)(=O)N[C@@H](C)c2[nH]nc(-c3ccc(F)cc3)c2-c2ccncc2)cc1
	29%	O=S(=O)(c1ccccc1C(F)(F)F)N1CCC(c2[nH]nc(-c3ccc(F)cc3)c2-c2ccncc2)CC1

IC50	inhibition	Compound
> 1 µM		CC(C)(C)C(=O)N[C@H](Cc1ccccc1)c1[nH]nc(-c2ccc(F)cc2)c1-c1ccncc1
	31%	O=S(=O)(c1ccc(C(F)(F)F)cc1)N1CCC(c2[nH]nc(-c3ccc(F)cc3)c2-c2ccncc2)CC1
	18%	COc1cccc(CC(=O)N[C@H](C)c2[nH]nc(-c3ccc(F)cc3)c2-c2ccncc2)c1
	21%	C[C@H](NC(=O)c1cccs1)c1[nH]nc(-c2ccc(F)cc2)c1-c1ccncc1
0.59 µM		C[C@H](NS(=O)(=O)/C=C/c1ccccc1)c1[nH]nc(-c2ccc(F)cc2)c1-c1ccncc1
	1%	Cc1noc(C)c1S(=O)(=O)NCc1[nH]nc(-c2ccc(F)cc2)c1-c1ccncc1
	51%	C[C@H](NC(=O)N(C)c1ccccc1)c1[nH]nc(-c2ccc(F)cc2)c1-c1ccncc1
	21%	CC(C)=CC(=O)N[C@@H](C)c1[nH]nc(-c2ccc(F)cc2)c1-c1ccncc1
	68%	C[C@H](NC(=O)c1c(F)cc(F)cc1F)c1[nH]nc(-c2ccc(F)cc2)c1-c1ccncc1
0.417 µM		c1cc(-c2c[nH]nc2-c2ccc3c(c2)OCO3)ccn1
	24%	COc1ccc(OC)c(S(=O)(=O)N2CCC(c3[nH]nc(-c4ccc(F)cc4)c3-c3ccncc3)CC2)c1
0.48 µM		O=S(=O)(NCCCc1[nH]nc(-c2ccc(F)cc2)c1-c1ccncc1)c1ccccc1Br
0.244 µM		Cc1[nH]nc(-c2ccc(Br)cc2)c1-c1ccncc1
	15%	O=[N+]([O-])c1cc(S(=O)(=O)NCc2[nH]nc(-c3ccc(F)cc3)c2-c2ccncc2)ccc1Cl
5 µM		CCS(=O)(=O)NCc1[nH]nc(-c2ccc(F)cc2)c1-c1ccncc1
	75%	C[C@H](NS(=O)(=O)c1cccc2cnccc12)c1[nH]nc(-c2ccc(F)cc2)c1-c1ccncc1
> 1 µM		CNC(=O)CC[C@H](NC(=O)c1ccno1)c1[nH]nc(-c2ccc(F)cc2)c1-c1ccncc1
	80%	CC(C)c1ccc(S(=O)(=O)N[C@H](C)c2[nH]nc(-c3ccc(F)cc3)c2-c2ccncc2)cc1
	98%	C[C@@H](NS(=O)(=O)c1ccc(Cl)c(Cl)c1)c1[nH]nc(-c2ccc(F)cc2)c1-c1ccncc1
	63%	O=S(=O)(NCc1[nH]nc(-c2ccc(F)cc2)c1-c1ccncc1)c1ccc(-c2ccccn2)s1
	10%	Cc1ccc(S(=O)(=O)N[C@@H](Cc2ccccc2)C(=O)N[C@H](C)c2[nH]nc(-c3ccc(F)cc3)c2-c2ccncc2)cc1
	25%	C[C@@H](NC(=O)c1ccc(I)cc1)c1[nH]nc(-c2ccc(F)cc2)c1-c1ccncc1
	46%	C[C@@H](NC(=O)C1CC1)c1[nH]nc(-c2ccc(F)cc2)c1-c1ccncc1

IC50	inhibition	Compound
	1%	Cc1cccc(S(=O)(=O)N2CCC(c3[nH]nc(-c4ccc(F)cc4)c3-c3ccncc3)CC2)c1
	95%	C[C@@H](NS(=O)(=O)c1cccc(Br)c1)c1[nH]nc(-c2ccc(F)cc2)c1-c1ccncc1
0.254 µM		CN(C)CCn1cc(-c2ccncc2)c(-c2ccc(F)cc2)n1
	7%	N#Cc1cccc(C(=O)NCCc2[nH]nc(-c3ccc(F)cc3)c2-c2ccncc2)c1
	27%	C[C@@H](NC(=O)[C@@H]1CCCN1)c1[nH]nc(-c2ccc(F)cc2)c1-c1ccncc1
	52%	CC(C)NC(=O)N[C@H](C)c1[nH]nc(-c2ccc(F)cc2)c1-c1ccncc1
0.243 µM		CCc1n[nH]c(-c2ccccc2)c1-c1ccncc1
	50%	O=S(=O)(NCCc1[nH]nc(-c2ccc(F)cc2)c1-c1ccncc1)c1cc(Cl)cc(Cl)c1O
	24%	O=S(=O)(NCc1[nH]nc(-c2ccc(F)cc2)c1-c1ccncc1)c1cccc2cnccc12
> 1 µM		CC(C)c1ccc(S(=O)(=O)NCc2[nH]nc(-c3ccc(F)cc3)c2-c2ccncc2)cc1
	21%	O=C(Cc1cccc2ccccc12)NCc1[nH]nc(-c2ccc(F)cc2)c1-c1ccncc1
	31%	CC(C)c1cc(C(C)C)c(C(=O)N[C@H](C)c2[nH]nc(-c3ccc(F)cc3)c2-c2ccncc2)c(C(C)C)c1
> 1 µM		O=C(NCCc1[nH]nc(-c2ccc(F)cc2)c1-c1ccncc1)c1cc(Cl)cc(Cl)c1
	31%	COc1ccc(NC(=O)NCc2[nH]nc(-c3ccc(F)cc3)c2-c2ccncc2)cc1
	22%	O=S(=O)(c1cccc(Cl)c1Cl)N1CCC(c2[nH]nc(-c3ccc(F)cc3)c2-c2ccncc2)CC1
	10%	O=C(NCc1[nH]nc(-c2ccc(F)cc2)c1-c1ccncc1)Nc1ccc(C(F)(F)F)cc1
	29%	COc1ccc(CC(=O)N[C@H](C)c2[nH]nc(-c3ccc(F)cc3)c2-c2ccncc2)cc1
	28%	O=S(=O)(c1ccc(F)cc1)N1CCC(c2[nH]nc(-c3ccc(F)cc3)c2-c2ccncc2)CC1
	86%	C[C@H](NS(=O)(=O)c1ccc(C(F)(F)F)cc1)c1[nH]nc(-c2ccc(F)cc2)c1-c1ccncc1
0.092 µM		O=C(Nc1ccccc1F)N1CCC(c2[nH]nc(-c3ccc(F)cc3)c2-c2ccncc2)CC1
> 1 µM		CNC(=O)CC[C@H](NC(=O)c1ccccc1OC)c1[nH]nc(-c2ccc(F)cc2)c1-c1ccncc1
	87%	C[C@@H](NC(=O)c1ccccc1Br)c1[nH]nc(-c2ccc(F)cc2)c1-c1ccncc1
2.67 µM		OCCn1cc(-c2ccnc(F)c2)c(-c2ccc(F)cc2)n1

IC50	inhibition	Compound
	2%	O=C(NCc1[nH]nc(-c2ccc(F)cc2)c1-c1ccncc1)c1ccccn1
	29%	COc1ccc(OC)c(S(=O)(=O)NCCc2[nH]nc(-c3ccc(F)cc3)c2-c2ccncc2)c1
3.92 µM		O=[N+]([O-])c1cccc(S(=O)(=O)NCc2[nH]nc(-c3ccc(F)cc3)c2-c2ccncc2)c1
	70%	C[C@@H](NC(=O)c1cccs1)c1[nH]nc(-c2ccc(F)cc2)c1-c1ccncc1
	70%	O=S(=O)(NCc1[nH]nc(-c2ccc(F)cc2)c1-c1ccncc1)c1ccccc1Cl
0.25 µM		CCS(=O)(=O)N1CCC(c2[nH]nc(-c3ccc(F)cc3)c2-c2ccncc2)CC1
	83%	C[C@H](NS(=O)(=O)c1cccc(C(F)(F)F)c1)c1[nH]nc(-c2ccc(F)cc2)c1-c1ccncc1
	73%	Cc1noc(C)c1C(=O)N[C@H](C)c1[nH]nc(-c2ccc(F)cc2)c1-c1ccncc1
	36%	C[C@@H](NS(=O)(=O)/C=C/c1ccccc1)c1[nH]nc(-c2ccc(F)cc2)c1-c1ccncc1
> 1 µM		CN(C(=O)N[C@H](Cc1ccccc1)c1[nH]nc(-c2ccc(F)cc2)c1-c1ccncc1)c1ccccc1
0.66 µM		C=CCOC(=O)N[C@H](C)c1[nH]nc(-c2ccc(F)cc2)c1-c1ccncc1
0.09 µM		Fc1ccc(-c2[nH]nc(NCCCN3CCOCC3)c2-c2ccncc2)cc1
	28%	O=C(NCc1[nH]nc(-c2ccc(F)cc2)c1-c1ccncc1)[C@@H]1C[C@@H]1c1ccccc1
	3%	C[C@H](NC(=O)c1cc(Cl)cc(Cl)c1)c1[nH]nc(-c2ccc(F)cc2)c1-c1ccncc1
	28%	CCNC(=O)NCc1[nH]nc(-c2ccc(F)cc2)c1-c1ccncc1
	25%	O=C(N[C@H](Cc1ccccc1)c1[nH]nc(-c2ccc(F)cc2)c1-c1ccncc1)c1ccncc1
	87%	C[C@@H](NC(=O)c1c(Cl)cccc1Cl)c1[nH]nc(-c2ccc(F)cc2)c1-c1ccncc1
	100%	O=C(NCc1[nH]nc(-c2ccc(F)cc2)c1-c1ccncc1)c1ccc([N+](=O)[O-])o1
0.222 µM		Cc1[nH]nc(-c2ccc(F)cc2)c1-c1ccncc1
	18%	CN(C)S(=O)(=O)NCc1[nH]nc(-c2ccc(F)cc2)c1-c1ccncc1
> 1 µM		CNC(=O)N[C@H](Cc1ccccc1)c1[nH]nc(-c2ccc(F)cc2)c1-c1ccncc1

Compound	IC50	inhibition
O=C(NCCCc1[nH]nc(-c2ccc(F)cc2)c1-c1ccncc1)NC1CN2CCC1CC2 (configuration not stated)	> 1 µM	
